“Also recorded” adds a separate entry of the source.
Columns and labels:
[1] = tested on: goldfish retinal ganglion cells; test: Goldfish retinal ganglion cell culture, axon outgrowth bioassay; format: cell-based; conditions: goldfish RGCs; for axon outgrowth in response to monosaccharides: sugar alone, 50 or 100 μM, D-configuration, FIG. 7a; for axon outgrowth in response to glucose/mannose analogs: analog alone (L-enantiomers 100 μM, D-glucosamine 25 μM, 2-deoxy-D-glucose 1 mM), FIG. 8a; for axon outgrowth, extracellular 6-phosphate: FIG. 8f; for effect on glucose-induced axon outgrowth: glucose 10 μM (50 μM with late fraction), dBcAMP 1 mM, 3-O-MG 100:1, 2-DG 1 mM; for effect on axon growth induced by inosine: 2-DG 1 mM; for effect on axon growth induced by VE<3: FIG. 2
Procedure: Goldfish retinal ganglion cells are prepared as described in PCT application serial no. PCT/US98/03001, the contents of which are incorporated herein by reference, and contacted with a hexose derivative such as mannose. The ability of the hexose derivative to stimulate axonal outgrowth from the goldfish retinal ganglion cells is monitored as described in PCT application serial no. PCT/US98/03001.
Goldfish retinal ganglion cell cultures. Mammalian AF-1 was initially characterized in bioassays using dissociated goldfish retinal ganglion cells (RGCs). In brief, Comet variety goldfish (Mt. Parnell Fisheries, PA) were dark-adapted, cooled to 4° C., and killed by cervical transection. Retinas were dissected and dissociated by incubation in papain followed by a series of trituration steps that result in an RGC-enriched cell suspension (Schwartz & Agronoff,; Schwalb et al., 1995). Approximately 500 RGCs per well were plated together with the experimental samples to be tested in defined, serum-free media containing Leibovitz' L15 media (Gibco BRL) plus N1 and N2 supplements (Bottenstein, Saito), antioxidants, and bovine serum albumin as described in detail elsewhere (Schwalb et al., 1995). In each experiment, 4 wells of each sample were distributed in 24-well plates in a blinded fashion so that the person evaluating axon outgrowth was unaware of the type of sample present in each well. Experiments included a positive control (previously validated goldfish AF-1 or inosine) and a negative control (defined media alone), likewise distributed on the plate in quadruplicate in a blinded fashion. After 6 days in culture at 21° C., axon outgrowth, operationally defined as the percent of RGCs that extended an axon≧5 cell diameters in length, was evaluated in approximately 150 consecutively encountered RGCs per well. […] Data are presented as normalized means ± SEM. All experiments were repeated at least 3 times.

[2] = tested on: rat retinal ganglion cells; test: Rat retinal ganglion cell culture, axon outgrowth; format: cell-based; conditions: rat RGCs; for axon outgrowth in the presence of forskolin: with forskolin, compared to forskolin alone, glucose up to 5 mM, mannose-6-phosphate up to 10 mM, FIG. 9a, 9c
Source text: Rat retinal ganglion cell cultures. Retinal ganglion cells were identified by retrograde labeling with Fluorogold (FG: Fluorochrome, Inc.). […] After allowing 7 days for FG to be retrogradely transported up the optic nerve, rats were killed, eyes were removed, and the retinas dissected. Retinas were dissociated with papain treatment followed by trituration. Mixed cultures containing 100-150 FG-labeled RGCs per well were maintained in 24 well plates in a defined, serum-free media (Minimal Essential Media containing NaHCO3,) at 37° C. at 5% CO2 for 3 days.

[3] = 6-TG 20 μM, NBTI 20 μM, forskolin 10 μM, Sp-cAMPs 150 μM, Rp-cAMPs 100 μM, H89 5 μM, FIG. 2, 4
[4] = forskolin 10 μM, Rp-cAMPs 100 μM, MH 10 mM

## COC(=O)C(C)=O [methyl pyruvate]
[1]; 5 mM
  effect on outgrowth of adding energy substrate to the media: had no effect

## O=C[C@@H](O)[C@H](O)[C@H](O)[C@H](O)CO [D-altrose]
[1]
  axon outgrowth in response to monosaccharides: failed to stimulate outgrowth

## CO[C@@H]1O[C@H](CO)[C@@H](O)[C@H](O)[C@H]1O [methyl-β-D-glucopyranoside]
[1]
  axon outgrowth in response to glucose/mannose analogs: ineffective
[1]; listed as methyl-β-glucose pyranose
  axon outgrowth in response to glucose/mannose analogs: No activity

## N[C@@H]1C(O)O[C@H](CO)[C@@H](O)[C@@H]1O (stereo partly drawn) [D-mannosamine]
[1]
  axon outgrowth in response to glucose/mannose analogs: ineffective

## N[C@H]1C(O)O[C@H](CO)[C@@H](O)[C@@H]1O (stereo partly drawn) [D-glucosamine]
[2]
  axon outgrowth in the presence of forskolin: did not respond
[1]
  axon outgrowth in response to glucose/mannose analogs: strongly active

## Nc1ncnc2c1ncn2[C@@H]1O[C@@H]2COP(O)(=S)O[C@H]2[C@H]1O (stereo partly shown) [Sp-cAMPs]
[2]; 3 days, no other factor added, forskolin 5 μM in FIG. 9a
  axon outgrowth, agent by itself: little effect on outgrowth
[2]; FIG. 3a
  effect on axon growth induced by the low molecular weight vitreous factor (VE<3): greatly potentiated
[2]; FIG. 3a, listed as Sp-cAMP-s
  effect on axon growth induced by the low molecular weight vitreous factor (VE<3): strongly potentiates
[1]; [3]
  effect on axon growth induced by AF-1: non-statistically significant decrease in outgrowth
[1]; 6-TG 20 μM, NBTI 20 μM, forskolin 10 μM, Sp-cAMPs 150 μM, Rp-cAMPs 100 μM, H89 5 μM, FIG. 2, 4, listed as Sp-cAMP-s
  effect on axon growth induced by AF-1: not enhanced; also recorded: reduced the level of outgrowth
[1]; forskolin 10 μM, Sp-cAMPs 150 μM, FIG. 4
  axon growth induced by cAMP-elevating agent on its own: Neither forskolin (10 μM) nor Sp-cAMPs (150 μM) induced growth on its own
[1]; forskolin 10 μM, Sp-cAMPs 150 μM, FIG. 4, listed as Sp-cAMP-s
  axon growth induced by cAMP-elevating agent on its own: Neither forskolin nor Sp-cAMP-s by itself stimulated axon growth

## O=C[C@H](O)[C@@H](O)[C@@H](O)[C@H](O)CO [D-galactose]
[1]
  axon outgrowth in response to monosaccharides: failed to stimulate outgrowth

## O=C[C@H](O)[C@@H](O)[C@H](O)[C@H](O)COP(=O)(O)O [D-glucose-6-phosphate]
[1]; 100 μM
  axon outgrowth, extracellular 6-phosphate: modest amount of outgrowth
[1]; 1 mM
  axon outgrowth, extracellular 6-phosphate: appreciable growth
[1]
  axon outgrowth in response to glucose/mannose analogs: relatively modest but statistically significant amount of outgrowth
[1]; listed as D-glc-6-P
  axon outgrowth in response to glucose/mannose analogs: small but statistically significant level of outgrowth

## CO[C@@H]([C@H](O)[C@H](O)CO)[C@@H](O)C=O [3-O-methyl-D-glucose]
[1]
  axon outgrowth in response to glucose/mannose analogs: ineffective; also recorded: No activity
[1]; [4]
  effect on glucose-induced axon outgrowth: fails to block the effect of glucose

## Nc1nc2nc[nH]c2c(=S)[nH]1 [6-TG, 6-thioguanine]
[2]; 6-TG, FIG. 3a
  effect on growth induced by VE<3 plus forskolin or Sp-cAMPs: reduced growth; also recorded: strongly inhibited
[1]; 6-TG 20 μM, NBTI 20 μM
  effect on axon growth induced by inosine: only partially blocked; also recorded: only partially inhibited
  effect on axon growth induced by VE<3: below baseline levels; also recorded: inhibited completely
[1]; [3]
  effect on axon growth induced by AF-1: below baseline levels

## O=C[C@H](O)[C@H](O)[C@@H](O)[C@@H](O)CO [L-mannose]
[2]
  axon outgrowth in the presence of forskolin: inactivity
[1]
  axon outgrowth in response to glucose/mannose analogs: completely inactive; also recorded: inactivity

## O=[N+]([O-])c1ccc(CSc2ncnc3c2ncn3[C@@H]2O[C@H](CO)[C@@H](O)[C@H]2O)cc1 [NBTI, 4-(nitrobenzyl-6-thioinosine)]
[1]; 6-TG 20 μM, NBTI 20 μM
  effect on axon growth induced by inosine: effectively blocked; also recorded: blocked completely
  effect on axon growth induced by VE<3: very little effect; also recorded: not affected
[1]; [3]
  effect on axon growth induced by AF-1: very little effect

## Nc1ncnc2c1ncn2[C@@H]1O[C@@H]2CO[P@@](O)(=S)O[C@H]2[C@H]1O [Rp-cAMPs]
[1]; [3]
  effect on axon growth induced by AF-1: not diminished
[1]; 6-TG 20 μM, NBTI 20 μM, forskolin 10 μM, Sp-cAMPs 150 μM, Rp-cAMPs 100 μM, H89 5 μM, FIG. 2, 4, listed as Rp-cAMP-s
  effect on axon growth induced by AF-1: did not reduce AF-1 induced growth
[1]; Rp-cAMPs 1 mM
  block of glucose-induced outgrowth: 48%
[1]; [4]
  effect on glucose-induced axon outgrowth: no effect on glucose-induced outgrowth

## CC(=O)N[C@H]1C(O)O[C@H](CO)[C@@H](O)[C@@H]1O (stereo partly shown) [acetylglucosamine, N-acetyl-glucosamine]
[1]
  axon outgrowth in response to glucose/mannose analogs: ineffective
[1]; listed as N-acetyl-glucosamine
  axon outgrowth in response to glucose/mannose analogs: No activity

## O=C(CO)[C@@H](O)[C@H](O)[C@H](O)CO [fructose]
[1]
  axon outgrowth in response to monosaccharides: failed to stimulate outgrowth

## C[C@H](O)[C@@H](O)[C@@H](O)[C@H](O)C=O [fucose, L-fucose]
[1]
  axon outgrowth in response to glucose/mannose analogs: ineffective
[1]; listed as L-fucose
  axon outgrowth in response to glucose/mannose analogs: No activity

## O=C(CO)[C@H](O)[C@@H](O)[C@H](O)CO [sorbose]
[1]
  axon outgrowth in response to monosaccharides: failed to stimulate outgrowth

## CCCCCCOC(=O)[C@]1(O)C[C@@H]2O[C@@]1(C)n1c3ccccc3c3c4c(c5c6ccccc6n2c5c31)C(=O)NC4 [KT5720]
[1]; KT5720 1 μM, MH 10 mM, dBcAMP, late fraction with 50 μM mannose
  effect on mannose-induced axon outgrowth: did not diminish the effect of mannose; also recorded: little effect on mannose-induced growth
[1]; KT5720 10 μM, FIG. 7f
  effect on mannose-induced axon outgrowth: only a slight effect

## O=CC[C@@H](O)[C@H](O)[C@H](O)CO [2-deoxy-D-glucose]
[1]; 6-TG 20 μM, NBTI 20 μM, listed as 2-DG
  effect on axon growth induced by inosine: blocked the effects of both glucose and inosine; also recorded: also blocks the effect of inosine
[1]
  axon outgrowth in response to glucose/mannose analogs: ineffective; also recorded: No activity
[1]; forskolin 10 μM, Rp-cAMPs 100 μM, MH 10 mM, listed as 2-DG
  effect on glucose-induced axon outgrowth: blocked the effects of both glucose and inosine; also recorded: does block the effect of glucose

## CO[C@H]1O[C@H](CO)[C@@H](O)[C@H](O)[C@H]1O [methyl-α-D-glucopyranoside]
[1]
  axon outgrowth in response to glucose/mannose analogs: ineffective
[1]; listed as methyl-α-glucose pyranose
  axon outgrowth in response to glucose/mannose analogs: No activity

## O=S(=O)(NCCNC/C=C/c1ccc(Br)cc1)c1cccc2cnccc12 [H89]
[1]; [3]
  effect on axon growth induced by AF-1: not diminished
[1]; 6-TG 20 μM, NBTI 20 μM, forskolin 10 μM, Sp-cAMPs 150 μM, Rp-cAMPs 100 μM, H89 5 μM, FIG. 2, 4, listed as H-89
  effect on axon growth induced by AF-1: did not reduce AF-1 induced growth
[1]; H89 20 μM, FIG. 4
  effect on axon growth induced by AF-1: diminished the effect of AF-1; also recorded: higher concentrations of H89 (20 μM) did

## O=C[C@H](O)[C@H](O)[C@@H](O)[C@H](O)CO [D-gulose]
[2]
  axon outgrowth in the presence of forskolin: some activity
[1]
  axon outgrowth in response to monosaccharides: failed to stimulate outgrowth

## O=C[C@@H](O)[C@@H](O)[C@@H](O)[C@H](O)CO [D-talose]
[1]
  axon outgrowth in response to monosaccharides: failed to stimulate outgrowth

## O=C[C@H](O)[C@H](O)[C@H](O)[C@H](O)CO [D-allose]
[1]
  axon outgrowth in response to monosaccharides: failed to stimulate outgrowth

## O[C@H]1[C@H](O)[C@@H](O)[C@H](O)[C@@H](O)[C@H]1O [myo-inositol]
[1]
  axon outgrowth in response to monosaccharides: failed to stimulate outgrowth

Reference: patent publication US7666843B2, “Methods and compositions for treatment of neurological disorder” (Children's Medical Center Corporation, priority 2002, dated 2010)
